Reference: paper PMC9739180, “Discovery of a Flavonoid FM04 as a Potent Inhibitor to Reverse P-Glycoprotein-Mediated Drug Resistance in Xenografts and Improve Oral Bioavailability of Paclitaxel” (International Journal of Molecular Sciences, 2022)

What was measured:
[1] = In vivo monitoring of FD18 and its metabolites in plasma after I.V. FD18; design: species or system SD rats; conditions: after FD18 5 mg/kg I.V.
Protocol: Figure 3 Proposed metabolism pathway of FD18 and its metabolites formed in vivo. (A) metabolism study of FD18 was conducted on human liver microsomes (HLM) and rat liver microsomes (RLM) in vitro. Chemical structure of the 3 metabolites was predicted by LC/QTOF-MS/MS and confirmed by the synthetic compounds (Figure 2E–J). The pathways for biotransformation of FD18 into FM04 was proposed. (B) plasma concentration profile of FD18 and the in vivo formation of metabolites M1, M2 and M3. After I.V. injection of FD18 (5 mg/kg) into […], plasma was collected at 10, 30, 60, 120, 240, 420 and 600 min, respectively. The concentration of FD18 at each time point was determined by UPLC-MS/MS. Its plasma concentration was further quantified with peak area ratio of FD18 against D7-18. […] In vivo formation of metabolites M1, M2 and M3 were monitored and quantified by UPLC-MS/MS with corresponding calibration curve of 14a, FM04 and FM327. Pharmacokinetic parameter AUC was calculated by the pharmacokinetic software-Summit® PK solutions 2.0 (Summit Research Service, Ashland, Wilmington, DE, USA).
FD18 stock solution was freshly prepared in 33% Cremophor EL, 33% ethanol and 33% saline at a concentration of 9.5 mg/mL. FD18 stock solution was then diluted with saline to form a 4 mg/mL working solution for animal injection. SD rats were intravenously (I.V.) administered with FD18 at 5 mg/kg (n = 3). Blood samples (approx. 300 μL) were taken via jugular vein at 10, 30, 60, 120, 240 and 420 min post-administration. Blood samples were centrifuged at 16,100× g for 10 min to obtain plasma. Plasma samples (50 µL) were spiked with 15 μL of internal standard (IS) (D7-NBn, 10 μg/mL). Two hundred microliter of methanol was added for protein precipitation. Samples were centrifuged at 16,100× g for 10 min prior to filtering by 0.22 μm syringe filter for UPLC-MSMS analysis.
The UPLC-MS/MS system consists of an Agilent 1260 infinity UPLC interfaced with a triple quadrupole mass spectrometer (Agilent 6460) equipped with an electrospray ionization source in positive mode. Zorbax Eclipse XDB-C8 (4.6 × 150 mm, 5 µM) was used for separation. The mobile phase for chromatographic separation consisted of methanol + 0.1% formic acid (solvent B) and Milli-Q water + 0.1% formic acid (solvent A) with gradient elution of 30% solvent B to 100% solvent B in 5 min. The elution condition was allowed for equilibrium from the 7th min onward. The analysis time for each injection was 13 min. The flow rate was 0.4 mL/min. The synthetic compound D7-NBn, the deuterated benzyl form of FD18, was used as the internal standard (IS) for the quantification of the three metabolites. Multiple reaction monitoring (MRM) was set to monitor the transitions of D7-NBn [M+H]^+, FD18 [M+H]^+, M1 [M+H]^+, M2 [M+H]^+ and M3 [M+H]^+ at 731.01 > 98.1 m/z, 724.01 > 91.1 m/z, 634.01 > 114 m/z, 416.01 > 91.1 m/z and 327.01 > 239 m/z, respectively. The coefficient of determination (R^2) for 14a, FM04 and FM327 were above 0.99. The dynamic range for the metabolites in the current setting is 78 ng/mL to 2.44 ng/mL.

P-gp = P-gp (Homo sapiens, UniProt P08183); assay: Intracellular FM04 level in LCC6MDR and LCC6 cells (P-gp transport substrate test); format: cell-based; design: expressed in transfected cells; host or cells: MDA435/LCC6MDR (human melanoma); conditions: 1-10 µM, LCC6MDR vs LCC6
Protocol: N = 2–3 independent experiments. […] After incubation, the cells were lysed and spun down. […] N = 2–6 independent experiments. […] A 1% DMSO was a solvent control. […] N = 2–3 independent experiments.
P-gp is a transporter with broad substrate specificity. To explore whether FM04 can be pumped by P-gp and work as a competitive inhibitor to prevent the drug substrate from binding, the following experiment was performed. The intracellular level of FM04 was compared in P-gp overexpressing LCC6MDR cells and non-P-gp parental LCC6 cells after its treatment.

Chain of P-gp (P08183 whole entry): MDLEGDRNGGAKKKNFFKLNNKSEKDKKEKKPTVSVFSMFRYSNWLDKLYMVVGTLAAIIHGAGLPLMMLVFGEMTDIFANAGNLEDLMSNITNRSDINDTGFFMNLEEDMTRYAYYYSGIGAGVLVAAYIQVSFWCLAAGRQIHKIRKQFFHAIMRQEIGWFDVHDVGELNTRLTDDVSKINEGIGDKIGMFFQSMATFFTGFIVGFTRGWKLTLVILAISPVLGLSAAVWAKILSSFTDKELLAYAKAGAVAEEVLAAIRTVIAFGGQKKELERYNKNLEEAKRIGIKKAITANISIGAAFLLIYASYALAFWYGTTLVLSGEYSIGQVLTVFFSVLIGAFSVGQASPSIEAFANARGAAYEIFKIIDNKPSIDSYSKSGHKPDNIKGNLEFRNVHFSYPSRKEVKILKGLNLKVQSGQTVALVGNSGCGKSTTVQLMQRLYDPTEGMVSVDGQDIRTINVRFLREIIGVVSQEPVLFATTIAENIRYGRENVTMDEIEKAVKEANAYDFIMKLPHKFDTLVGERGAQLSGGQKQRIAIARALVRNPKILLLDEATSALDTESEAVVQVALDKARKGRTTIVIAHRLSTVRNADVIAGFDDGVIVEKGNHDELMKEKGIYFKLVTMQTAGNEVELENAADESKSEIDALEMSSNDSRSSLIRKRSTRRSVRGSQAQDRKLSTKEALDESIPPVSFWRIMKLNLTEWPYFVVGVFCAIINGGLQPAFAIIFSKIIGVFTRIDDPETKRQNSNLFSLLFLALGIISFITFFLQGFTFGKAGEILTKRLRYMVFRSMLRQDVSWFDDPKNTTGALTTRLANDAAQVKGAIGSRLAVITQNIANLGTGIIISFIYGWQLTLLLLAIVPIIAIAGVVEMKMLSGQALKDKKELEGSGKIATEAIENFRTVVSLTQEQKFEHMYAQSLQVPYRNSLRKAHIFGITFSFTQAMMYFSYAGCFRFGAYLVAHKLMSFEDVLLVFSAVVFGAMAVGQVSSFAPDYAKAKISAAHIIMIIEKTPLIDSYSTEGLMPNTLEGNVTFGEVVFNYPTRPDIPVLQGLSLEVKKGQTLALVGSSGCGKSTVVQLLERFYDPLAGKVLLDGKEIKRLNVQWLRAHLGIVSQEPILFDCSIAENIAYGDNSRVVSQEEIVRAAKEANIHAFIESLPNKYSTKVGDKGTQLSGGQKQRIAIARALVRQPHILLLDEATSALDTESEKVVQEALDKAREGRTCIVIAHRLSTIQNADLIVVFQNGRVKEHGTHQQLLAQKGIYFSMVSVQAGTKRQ

- AUC(0-t) ([1]; Sprague-Dawley, rat, iv): 44.5 ng·h/mL
- Cmax ([1]; Sprague-Dawley, rat, iv): 11 ng/mL
- Tmax ([1]; Sprague-Dawley, rat, iv): 1 h
- Normalized AUC (systemic exposure relative to FD18) ([1]; listed as M2): 7%
- Transport substrate of P-gp (P-gp): not a transport substrate of P-gp
Compound: O=c1cc(-c2ccc(OCCOCCNCc3ccccc3)cc2)oc2ccccc12 [FM04, 2-(4-(2-(2-(benzylamino)ethoxy)ethoxy)phenyl)-4H-chromen-4-one]
